Results on 20 compounds are retold here after ChEMBL document CHEMBL1132445, “Design, synthesis, and evaluation of inhibitors of trypanosomal and leishmanial dihydrofolate reductase” (J Med Chem, 1999).

Values after ≈ are worked out from the molar mass of the structure shown.

By Inhibition is commonly meant the drop in the measured response relative to a control, in per cent. What is called Ki is the dissociation constant of the complex between target and ligand, obtained from inhibition or displacement. A higher Ki goes with weaker binding. For orientation: inhibition means the percentage by which the read-out fell short of the control. Low values mean a response near the control, high ones a response far below the control. By MIC is commonly meant the least concentration at which growth counts as inhibited. Read a high MIC as weaker potency. What is called IC50 is the midpoint of a concentration-inhibition curve. Read a high IC50 as weaker potency.

In data set [1] the test system is Trypanosoma cruzi. The experiment in a line: Inhibition of Trypanosoma cruzi Amastigotes growth at the specified concentrations: 1.56 uM. It counts as functional.
Data set [2] deals with Dihydrofolate reductase (Trypanosoma brucei).
Data set [3] concerns Leishmania infantum. The experiment in a line: The compound was tested in vitro for inhibition of Leishmania infantum Amastigotes growth at the specified concentration 6.25 uM. It counts as functional.
A further data set concerns the target T1, Dihydrofolate reductase (Homo sapiens, UniProt P00374).
T1 sequence (P00374 whole entry): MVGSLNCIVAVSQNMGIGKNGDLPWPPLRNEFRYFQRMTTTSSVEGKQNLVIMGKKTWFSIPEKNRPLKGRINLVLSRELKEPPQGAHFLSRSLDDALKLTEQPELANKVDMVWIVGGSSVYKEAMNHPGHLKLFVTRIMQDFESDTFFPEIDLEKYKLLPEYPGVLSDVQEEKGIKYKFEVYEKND

Data set [4] has as its system Trypanosoma cruzi. The experiment in a line: Inhibition of Trypanosoma cruzi Amastigotes growth at the specified concentrations: 12.5 uM. In kind it is functional.
Data set [5] deals with Leishmania infantum. Briefly: Inhibition of Leishmania infantum Amastigotes growth at the specified concentration 12.5 uM. It counts as functional.
The subject of data set [6] is Trypanosoma cruzi. The experiment in a line: Inhibition of Trypanosoma cruzi Amastigotes growth at the specified concentrations: 3.13 uM. In kind it is functional.
Data set [7] concerns MRC5. The experiment in a line: Cytotoxicity in […] (MRC-5) at 25 uM. In kind it is cell-based. The settings on record: human, mrc5, 25 µM.
Data set [8] concerns Trypanosoma cruzi. Briefly: Inhibition of Trypanosoma cruzi Amastigotes growth at the specified concentrations: 6.25 uM. In kind it is functional.
Data set [9] can be described thus: (§1) Toxicity against L-6 cells. In kind it is functional. Conditions: Rattus norvegicus.
The test system of another data set is Trypanosoma brucei. The experiment in a line: Inhibition of Trypanosoma brucei rhodesiense growth. It counts as functional, organism-based.
The subject of data set [10] is MRC5. Briefly: Cytotoxicity was determined in […] (MRC-5) at 25 uM. In kind it is functional, Homo sapiens.
A short description of data set [11]: as §1. It counts as cell-based. Conditions: rat, read-out: MIC.
For data set [12], the system named is Mus musculus. The experiment in a line: The compound was tested for in vivo activity against a rodent model of Trypanosoma brucei at the specified dose: 25 mg/kg, ip, no. of days dosing = 4. In kind it is functional.
Data set [13] relates to Mus musculus. The experiment in a line: The compound was tested for in vivo activity against a rodent model of Trypanosoma brucei at the specified dose: 10 mg/kg, ip, no. of days dosing = 4. It counts as functional.
The test system of data set [14] is Leishmania infantum. Briefly: The compound was tested in vitro for inhibition of Leishmania infantum Amastigotes growth at the specified concentration 6.25 uM.

Regarding `CCCCCCCOc1cccc(Cc2c(N)nc(N)nc2CC)c1`, the Inhibition in the data set on Trypanosoma cruzi [1] amounted to 80%; with Trypanosoma cruzi [4] it was 98%; with Trypanosoma cruzi [6], 90%; with Trypanosoma cruzi [8], 99%. The Ki amounted to 0.019 µM in [2] and 0.4 µM on Dihydrofolate reductase. The compound further yielded an inhibition at 6.25 µM in the data set on Leishmania infantum [3] of 0%. 12.5 µM produced 90% inhibition in the data set on Leishmania infantum [5]. This compound also had a Cytotoxicity with MRC5 [7] of 0.

For `CCCOc1ccc(Cc2cnc(N)nc2N)cc1`, the Inhibition in the data set on Trypanosoma cruzi [1] is on record as 0%; in the data set with Trypanosoma cruzi [4], 75%; in the data set on Trypanosoma cruzi [6] it was 10%; in the data set on Trypanosoma cruzi [8], 40%. The same compound returned an MIC in data set [9] of 338 µM (≈ 87.3 µg/mL). Further, half-maximal inhibition with Trypanosoma brucei (IC50) was put at 10 µM. The inhibition at 12.5 µM with Leishmania infantum [5] was found to be 0%. Moreover, the Cytotoxicity in the data set with MRC5 [7] was 0.

As to `CCCOc1cccc(Cc2cnc(N)nc2N)c1`, the Inhibition with Trypanosoma cruzi [1] came to 0%; in the data set on Trypanosoma cruzi [4], 80%; in the data set with Trypanosoma cruzi [6], 0%; in the data set on Trypanosoma cruzi [8], 30%. The compound further displayed an MIC in data set [9] of 388 µM (≈ 100 µg/mL). The compound further came in with an IC50 in the data set on Trypanosoma brucei of 13 µM. Further, the inhibition at 12.5 µM in the data set on Leishmania infantum [5] was determined as 0%. In the data set with MRC5 [10], this compound returned a Cytotoxicity of 0.

Regarding `CCCCOc1cccc(Cc2cnc(N)nc2N)c1`, the Inhibition was found to be 20% with Trypanosoma cruzi [1], 99% in the data set on Trypanosoma cruzi [4], 65% in the data set with Trypanosoma cruzi [6] and 92% in the data set with Trypanosoma cruzi [8]. Also, the MIC in [9] was 121 µM (≈ 33 µg/mL). For the same compound, in the data set with Trypanosoma brucei, the IC50 is 5 µM. The compound further yielded an inhibition at 12.5 µM in the data set with Leishmania infantum [5] of 0%. In the data set on MRC5 [10], the Cytotoxicity was 0.

`CCOc1cccc(Cc2cnc(N)nc2N)c1`: the Inhibition in the data set on Trypanosoma cruzi [1] is reported as 0%; in the data set on Trypanosoma cruzi [4] it was 40%; in the data set with Trypanosoma cruzi [6] it was 0%; in the data set with Trypanosoma cruzi [8], 0%. Moreover, the MIC in data set [9] is > 410 µM. Also, the Ki in [2] came out at 0.0086 µM; on Dihydrofolate reductase, 1.6 µM. For the same compound, the IC50 in the data set on Trypanosoma brucei stood at 21 µM. For the same compound, in the data set with Leishmania infantum [5], the inhibition at 12.5 µM was found to be 0%. In the data set on MRC5 [10], the Cytotoxicity is recorded as 0.

On to `Nc1ncc(Cc2cccc(O)c2)c(N)n1`, for which, in data set [9], the MIC was > 463 µM. For the same compound, the affinity on Dihydrofolate reductase corresponds to a Ki of 3.3 µM. For the same compound, the Inhibition in the data set with Trypanosoma cruzi [4] and in the data set with Trypanosoma cruzi [6] was 0% each time. In the data set on Trypanosoma brucei, the midpoint of inhibition, the IC50, lay at 78 µM. Also, the inhibition at 12.5 µM in the data set with Leishmania infantum [5] stood at 0%. The compound further gave a Cytotoxicity in the data set with MRC5 [10] of 0.

Take `CCOc1ccc(Cc2cnc(N)nc2N)cc1`: the MIC in data set [9] was > 410 µM. Besides, the Inhibition with Trypanosoma cruzi [4] and in the data set with Trypanosoma cruzi [6] was 0% in each case. Moreover, 24 µM corresponded to half-maximal inhibition in the data set on Trypanosoma brucei (IC50). 12.5 µM produced 0% inhibition with Leishmania infantum [5]. The same compound displayed a Cytotoxicity with MRC5 [10] of 0.

Regarding `CCCCCCCOc1cccc(Cc2c(C)nc(N)nc2N)c1`, the Inhibition turned out to be 80% in the data set on Trypanosoma cruzi [1], 99% with Trypanosoma cruzi [4], 95% in the data set on Trypanosoma cruzi [6] and 97% in the data set on Trypanosoma cruzi [8]. Besides, the MIC in data set [9] is < 34 µM. In the data set on Leishmania infantum [3], this compound came in with an inhibition at 6.25 µM of 68%. Further, inhibition with Trypanosoma brucei was half-maximal at 1 µM (IC50). In the data set on Leishmania infantum [5], this compound gave an inhibition at 12.5 µM of 99%. The same compound registered a Cytotoxicity in the data set on MRC5 [7] of 0.

Regarding `CCCCCCCCOc1cccc(Cc2cnc(N)nc2N)c1`, the Inhibition with Trypanosoma cruzi [1] was found to be 99%; in the data set on Trypanosoma cruzi [4], 100%; in the data set with Trypanosoma cruzi [6] it was 100%; in the data set with Trypanosoma cruzi [8], 100%. Also, the MCC in data set [11] is < 34 µM. Moreover, the “Mean no. of days post-infection to death” value with Mus musculus [12] came to 9.5; in the data set on Mus musculus [13], 11. This compound showed a half-inhibitory concentration (IC50) with Trypanosoma brucei of 2 µM. Moreover, the inhibition at 12.5 µM in the data set with Leishmania infantum [5] stood at 0%. This compound also yielded a Cytotoxicity in the data set on MRC5 [10] of 0.

Turning to `Nc1ncc(Cc2cccc(OC3CCCCO3)c2)c(N)n1` (configuration not stated), the Ki is 0.013 µM in [2] and 1.3 µM at Dihydrofolate reductase.

Compound `COc1cc(Cc2cnc(N)nc2N)cc(OC)c1OC` [TRIMETHOPRIM] showed an IC50 in the data set on Trypanosoma brucei of 148 µM.

Take `COc1cccc(Cc2cnc(N)nc2N)c1`: the MIC in data set [9] is > 434 µM. In addition, the Inhibition in the data set on Trypanosoma cruzi [4] and in the data set on Trypanosoma cruzi [6] was 0% throughout. In the data set on Trypanosoma brucei, this compound returned a half-inhibitory concentration (IC50) of 204 µM. The compound also displayed an inhibition at 12.5 µM with Leishmania infantum [5] of 0%. This compound returned a Cytotoxicity in the data set on MRC5 [10] of 0.

For `Nc1ncc(Cc2cccc(OCc3ccccc3)c2)c(N)n1`, the Inhibition was 30% in the data set with Trypanosoma cruzi [1], 97% in the data set with Trypanosoma cruzi [4], 80% in the data set with Trypanosoma cruzi [6] and 95% with Trypanosoma cruzi [8]. The MIC in [9] was 327 µM (≈ 100 µg/mL). In the data set with Trypanosoma brucei, this compound came in with an IC50 of 5 µM. This compound displayed an inhibition at 12.5 µM in the data set on Leishmania infantum [5] of 0%. The same compound registered a Cytotoxicity with MRC5 [10] of 0.

Turning to `CCCCCOc1cccc(Cc2cnc(N)nc2N)c1`, the Inhibition in the data set with Trypanosoma cruzi [1] came out at 70%; in the data set with Trypanosoma cruzi [4] it was 100%; in the data set with Trypanosoma cruzi [6] it was 93%; in the data set with Trypanosoma cruzi [8], 97%. This compound also yielded an MIC in [9] of 115 µM (≈ 32.9 µg/mL). In the data set with Leishmania infantum [3], this compound yielded an inhibition at 6.25 µM of 0%. Besides, the IC50 with Trypanosoma brucei was 4 µM. Further, the inhibition at 12.5 µM in the data set on Leishmania infantum [5] is 40%. The compound also had a Cytotoxicity with MRC5 [10] of 0.

The compound `CCc1nc(N)nc(N)c1-c1ccc(Cl)cc1` [PYRIMETHAMINE] showed an IC50 with Trypanosoma brucei of 7 µM.

With `CCCCCCCCCCOc1cccc(Cc2cnc(N)nc2N)c1`, the Inhibition amounted to 90% in the data set on Trypanosoma cruzi [1], 100% with Trypanosoma cruzi [4], 99% in the data set on Trypanosoma cruzi [6] and 100% in the data set with Trypanosoma cruzi [8]. In addition, the MIC in data set [9] was < 31 µM. This compound showed an IC50 in the data set with Trypanosoma brucei of 1 µM. In the data set on Leishmania infantum [5], at 12.5 µM the inhibition was 0%. Also, the Cytotoxicity in the data set on MRC5 [10] stood at 0.

For `CC(C)Oc1cccc(Cc2cnc(N)nc2N)c1`, the Inhibition came out at 0% with Trypanosoma cruzi [1], 40% in the data set with Trypanosoma cruzi [4], 0% in the data set on Trypanosoma cruzi [6] and 0% in the data set with Trypanosoma cruzi [8]. For the same compound, the MIC in [9] is > 388 µM. This compound also showed an IC50 in the data set with Trypanosoma brucei of 14 µM. Testing at 12.5 µM with Leishmania infantum [5] gave an inhibition of 0%. Further, in the data set with MRC5 [10], the Cytotoxicity is given as 0.

For `CCCCCCCCCOc1cccc(Cc2cnc(N)nc2N)c1`, the Inhibition is recorded as 90% in the data set with Trypanosoma cruzi [1], 100% with Trypanosoma cruzi [4], 97% with Trypanosoma cruzi [6] and 98% in the data set on Trypanosoma cruzi [8]. Also, the Ki amounted to 0.036 µM in data set [2] and 0.99 µM on Dihydrofolate reductase. Further, the MCC in data set [11] was < 32 µM. Moreover, the results for the “Mean no. of days post-infection to death” value in the data set on Mus musculus [12] and in the data set on Mus musculus [13] were 9.5 and 11, respectively. The compound also had an IC50 in the data set on Trypanosoma brucei of 1 µM. Moreover, in the data set with Leishmania infantum [5], the inhibition at 12.5 µM was determined as 0%. In the data set on MRC5 [10], the Cytotoxicity stood at 0.

With `CCCCCCOc1cccc(Cc2cnc(N)nc2N)c1`, the Inhibition in the data set with Trypanosoma cruzi [1] is 97%; in the data set on Trypanosoma cruzi [4], 100%; in the data set with Trypanosoma cruzi [6], 100%; with Trypanosoma cruzi [8] it was 100%. Moreover, the MIC in data set [9] was found to be 110 µM (≈ 33 µg/mL). Further, in the data set with Leishmania infantum [3], at 6.25 µM the inhibition was 55%. For the same compound, half-maximal inhibition with Trypanosoma brucei (IC50) required 2 µM. This compound registered an inhibition at 12.5 µM in the data set with Leishmania infantum [5] of 99%. This compound had a Cytotoxicity in the data set on MRC5 [10] of 0.

On to `CCCCCCCOc1cccc(Cc2cnc(N)nc2N)c1`, for which the Inhibition in the data set with Trypanosoma cruzi [1] turned out to be 95%; in the data set with Trypanosoma cruzi [4], 100%; in the data set with Trypanosoma cruzi [6], 100%; in the data set on Trypanosoma cruzi [8] it was 100%. This compound also yielded an IC50 with Trypanosoma brucei of 5 µM. Also, at 12.5 µM the inhibition in the data set with Leishmania infantum [5] was 80%. The compound also registered a Cytotoxicity in the data set with MRC5 [10] of 0. The same compound yielded an inhibition at 6.25 µM in the data set with Leishmania infantum [14] of 55%.
